The values below come from ChEMBL document CHEMBL6134895, “Strategic Design and Optimization of Umifenovir Analogues: Balancing Antiviral Efficacy and hERG Toxicity against SARS-CoV-2” (J Med Chem, 2025).

The structures appear in SMILES notation. pIC50: −log10 of the molar value.

Tested on in the first series: not listed separately
The series can be described thus: Microsomal stability in human liver microsomes assessed as half life at 100 uM preincubated for 15 mins followed by NADPH addition measured up to 60 mins by LC-MS/MS analysis. The format is ADME, Microsome. Conditions: time < 75 min.
As for `CCOC(=O)c1c(CSc2ccc(C)cc2C)n(Cc2cccc3ccccc23)c2cc(Br)c(O)cc12`, the half-life at 100 µM is more than 2 h.
Same read-out and setting: the result for `Cc1ccc(Cn2c(CSc3c(C)cc(C)cc3C)c(C(=O)NC(C)(C)C)c3cc(O)c(Br)cc32)cc1` reads 0.162 h.
On the same count and under the same terms, the result for `CCOC(=O)c1c(CSc2ccc(C)cc2C)n(Cc2ccc(C)cc2)c2cc(Br)c(O)c(CN(C)C)c12` reads 0.0452 h.

Tested on in the next series: not listed separately
The series can be described thus: Stability in mouse plasma assessed as compound remaining at 2 uM measured after 60 mins by LC-MS/MS analysis. The format is ADME, cell-free. Conditions: read-out: Stability.
For `Cc1ccc(Cn2c(CSc3c(C)cc(C)cc3C)c(C(=O)NC(C)(C)C)c3cc(O)c(Br)cc32)cc1`, the remaining at 1 h, 2 µM was 96.9%.

The next series relates to SARS-CoV-2. The series can be described thus: Potency index, ratio of Arbidol IC50 to test compound IC50 for antiviral activity against SARS CoV-2 Wuhan infected in African green monkey Vero E6 cells assessed as inhibition of viral replication pretreated for 15 mins followed by compound removal and induction of viral infection for 1 hr and subsequent removal of inoculum and further addition of media containing compound measured after 24 hrs …. The format is functional, Severe acute respiratory syndrome coronavirus 2. Conditions: time 24.25 hrs.
In the case of `Cc1ccc(Cn2c(CSc3c(C)cc(C)cc3C)c(C(=O)NC(C)(C)C)c3cc(O)c(Br)cc32)cc1`, the “Ratio IC50” value is listed as approximately 13.

Tested on in a further series: not listed separately
The series can be described thus: Stability in mouse plasma assessed as half life at 2 uM measured up to 120 mins by LC-MS/MS analysis.
Conditions: not given
The format is ADME, cell-free.
Turning to `CCOC(=O)c1c(CSc2ccc(C)cc2C)n(Cc2cccc3ccccc23)c2cc(Br)c(O)cc12`, the half-life at 2 µM was found to be 3 h.
With `Cc1ccc(Cn2c(CSc3c(C)cc(C)cc3C)c(C(=O)NC(C)(C)C)c3cc(O)c(Br)cc32)cc1`, the half-life at 2 µM was more than 2 h.
Still for that read-out and setting: next, `CCOC(=O)c1c(CSc2ccc(C)cc2C)n(Cc2ccc(C)cc2)c2cc(Br)c(O)c(CN(C)C)c12`: more than 2 h.

Tested on in another series: not listed separately
The series can be described thus: Microsomal stability in human liver microsomes assessed as compound remaining at 100 uM preincubated for 15 mins followed by NADPH addition measured after 60 mins by LC-MS/MS analysis. The format is ADME, Microsome. Conditions: time 75 min, read-out: Stability.
With `CCOC(=O)c1c(CSc2ccc(C)cc2C)n(Cc2cccc3ccccc23)c2cc(Br)c(O)cc12`, the remaining at 1 h, 100 µM is 96.7%.
The same measure, in the same setting: next, `Cc1ccc(Cn2c(CSc3c(C)cc(C)cc3C)c(C(=O)NC(C)(C)C)c3cc(O)c(Br)cc32)cc1`: 1.1%.
For `CCOC(=O)c1c(CSc2ccc(C)cc2C)n(Cc2ccc(C)cc2)c2cc(Br)c(O)c(CN(C)C)c12`, the remaining at 1 h, 100 µM was found to be 0.31%.

Tested on in another series: not listed separately
The series can be described thus: Stability in human plasma assessed as half life at 2 uM measured up to 120 mins by LC-MS/MS analysis.
Conditions: not given
The format is ADME, cell-free.
`CCOC(=O)c1c(CSc2ccc(C)cc2C)n(Cc2cccc3ccccc23)c2cc(Br)c(O)cc12`: the half-life at 2 µM is more than 4 h.
Same read-out and setting: next, `Cc1ccc(Cn2c(CSc3c(C)cc(C)cc3C)c(C(=O)NC(C)(C)C)c3cc(O)c(Br)cc32)cc1`: more than 2 h; `CCOC(=O)c1c(CSc2ccc(C)cc2C)n(Cc2ccc(C)cc2)c2cc(Br)c(O)c(CN(C)C)c12`: more than 2 h.

The test system of a further series is SARS-CoV-2. The series can be described thus: Antiviral activity against SARS CoV-2 Wuhan infected in African green monkey Vero E6 cells assessed as virus inactivation at 5 uM pretreated for 15 mins followed by compound removal and induction of viral infection for 1 hr and subsequent removal of inoculum and further addition of media containing compound measured after 48 hrs by RT-qPCR analysis relative to control. The format is functional, Severe acute respiratory syndrome coronavirus 2. Conditions: time 48.25 hrs. In general terms: Real-time PCR tracks product formation cycle by cycle.
Regarding `CCOC(=O)c1c(CSc2ccc(C)cc2C)n(Cc2cccc3ccccc23)c2cc(Br)c(O)cc12`, the Activity is given as less than 90%.
Consider `CCOC(=O)c1c(CSc2ccc(C)cc2C)n(Cc2ccc(C)cc2)c2cc(Br)c(O)c(CN(C)C)c12`, for which the Activity was less than 99.9%.

Tested on in a further series: not listed separately
The series can be described thus: Stability in human plasma assessed as compound remaining at 2 uM measured after 2 hrs by LC-MS/MS analysis. The format is ADME, cell-free. Conditions: read-out: Stability.
As to `CCOC(=O)c1c(CSc2ccc(C)cc2C)n(Cc2cccc3ccccc23)c2cc(Br)c(O)cc12`, the remaining at 2 h, 2 µM turned out to be 69.1%.
On the same count and under the same terms, the result for `CCOC(=O)c1c(CSc2ccc(C)cc2C)n(Cc2ccc(C)cc2)c2cc(Br)c(O)c(CN(C)C)c12` reads 115%.

Tested on in another series: not listed separately
The series can be described thus: Microsomal stability in human liver microsomes assessed as intrinsic clearance measured per mg protein at 100 uM preincubated for 15 mins followed by NADPH addition measured up to 60 mins by LC-MS/MS analysis. The format is ADME, Microsome. Conditions: time < 75 min, read-out: CLH.
In the case of `CCOC(=O)c1c(CSc2ccc(C)cc2C)n(Cc2cccc3ccccc23)c2cc(Br)c(O)cc12`, the microsomal CLint at 100 µM was found to be 20.2 µL/min/mg.
The same measure, in the same setting: the result for `Cc1ccc(Cn2c(CSc3c(C)cc(C)cc3C)c(C(=O)NC(C)(C)C)c3cc(O)c(Br)cc32)cc1` reads 242 µL/min/mg; that for `CCOC(=O)c1c(CSc2ccc(C)cc2C)n(Cc2ccc(C)cc2)c2cc(Br)c(O)c(CN(C)C)c12`, 512 µL/min/mg.

Tested on in another series: not listed separately
The series can be described thus: Stability in mouse plasma assessed as compound remaining at 2 uM measured after 2 hrs by LC-MS/MS analysis. Conditions: read-out: Stability. The format is ADME, cell-free.
On to `CCOC(=O)c1c(CSc2ccc(C)cc2C)n(Cc2cccc3ccccc23)c2cc(Br)c(O)cc12`, for which the remaining at 2 h, 2 µM is 70.3%.
`CCOC(=O)c1c(CSc2ccc(C)cc2C)n(Cc2ccc(C)cc2)c2cc(Br)c(O)c(CN(C)C)c12`: the remaining at 2 h, 2 µM worked out at 88.4%.

For a further series, the target named is Voltage-gated inwardly rectifying potassium channel KCNH2 (Homo sapiens, UniProt Q12809). The series can be described thus: Inhibition of hERG extracted from membrane (unknown origin) incubated for 4 hrs by fluorescence polarization assay. The format is toxicity, cell membranes.
Voltage-gated inwardly rectifying potassium channel KCNH2, sequence (Q12809 whole entry): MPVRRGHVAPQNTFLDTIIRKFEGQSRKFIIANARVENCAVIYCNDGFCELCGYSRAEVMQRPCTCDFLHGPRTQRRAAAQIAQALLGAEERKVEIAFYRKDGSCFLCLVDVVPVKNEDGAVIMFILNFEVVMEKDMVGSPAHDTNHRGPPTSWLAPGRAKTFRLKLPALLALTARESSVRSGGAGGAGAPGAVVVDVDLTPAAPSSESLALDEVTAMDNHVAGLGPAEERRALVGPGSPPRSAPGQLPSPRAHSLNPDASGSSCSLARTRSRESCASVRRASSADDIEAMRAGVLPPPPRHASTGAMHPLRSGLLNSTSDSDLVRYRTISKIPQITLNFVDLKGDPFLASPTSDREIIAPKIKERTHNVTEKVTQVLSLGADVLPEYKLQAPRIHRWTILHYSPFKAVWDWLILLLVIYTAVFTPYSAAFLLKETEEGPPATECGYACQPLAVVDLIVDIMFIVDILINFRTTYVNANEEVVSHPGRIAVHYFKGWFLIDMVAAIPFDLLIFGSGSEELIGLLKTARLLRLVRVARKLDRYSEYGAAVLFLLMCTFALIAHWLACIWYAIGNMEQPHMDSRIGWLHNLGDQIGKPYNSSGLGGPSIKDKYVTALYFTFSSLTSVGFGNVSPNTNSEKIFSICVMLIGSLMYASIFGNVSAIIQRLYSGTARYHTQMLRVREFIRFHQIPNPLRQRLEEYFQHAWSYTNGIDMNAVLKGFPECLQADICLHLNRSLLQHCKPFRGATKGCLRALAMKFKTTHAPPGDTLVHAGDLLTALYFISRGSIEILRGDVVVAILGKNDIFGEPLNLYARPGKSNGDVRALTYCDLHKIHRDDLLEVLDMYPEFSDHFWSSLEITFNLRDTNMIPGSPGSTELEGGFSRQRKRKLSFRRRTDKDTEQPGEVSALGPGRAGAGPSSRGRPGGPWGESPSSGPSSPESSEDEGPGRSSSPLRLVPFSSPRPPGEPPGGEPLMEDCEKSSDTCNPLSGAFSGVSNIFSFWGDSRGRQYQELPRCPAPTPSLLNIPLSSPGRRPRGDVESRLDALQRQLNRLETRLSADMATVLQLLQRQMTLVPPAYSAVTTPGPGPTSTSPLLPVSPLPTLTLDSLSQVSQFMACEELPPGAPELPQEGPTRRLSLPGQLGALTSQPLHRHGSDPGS
Conditions: not given
In general terms: hERG is a cardiac potassium channel; its block is linked to QT prolongation.
`CCOC(=O)c1c(CSc2ccc(C)cc2C)n(Cc2cccc3ccccc23)c2cc(Br)c(O)cc12` showed a pIC50 of less than 4.52.
As to `Cc1ccc(Cn2c(CSc3c(C)cc(C)cc3C)c(C(=O)NC(C)(C)C)c3cc(O)c(Br)cc32)cc1`, the pIC50 was less than 4.52.
The molecule `CCOC(=O)c1c(CSc2ccc(C)cc2C)n(Cc2ccc(C)cc2)c2cc(Br)c(O)c(CN(C)C)c12` had a pIC50 of 5.22.

Tested on in a further series: not listed separately
The series can be described thus: Microsomal stability in mouse liver microsomes assessed as half life at 100 uM preincubated for 15 mins followed by NADPH addition measured up to 60 mins by LC-MS/MS analysis. Conditions: time < 75 min. The format is ADME, Microsome. On the technique in general: Microsomes from liver hold many membrane-bound enzymes, among them those of drug oxidation.
As for `CCOC(=O)c1c(CSc2ccc(C)cc2C)n(Cc2cccc3ccccc23)c2cc(Br)c(O)cc12`, the half-life at 100 µM was more than 2 h.
Still for that read-out and setting: next, `Cc1ccc(Cn2c(CSc3c(C)cc(C)cc3C)c(C(=O)NC(C)(C)C)c3cc(O)c(Br)cc32)cc1`: 0.0955 h.
For `CCOC(=O)c1c(CSc2ccc(C)cc2C)n(Cc2ccc(C)cc2)c2cc(Br)c(O)c(CN(C)C)c12`, the half-life at 100 µM stood at 0.0846 h.

Tested on in a further series: not listed separately
The series can be described thus: Microsomal stability in mouse liver microsomes assessed as compound remaining at 100 uM preincubated for 15 mins followed by NADPH addition measured after 60 mins by LC-MS/MS analysis. The format is ADME, Microsome. Conditions: time 75 min, read-out: Stability.
Regarding `CCOC(=O)c1c(CSc2ccc(C)cc2C)n(Cc2cccc3ccccc23)c2cc(Br)c(O)cc12`, the remaining at 1 h, 100 µM was found to be 75.5%.
With `Cc1ccc(Cn2c(CSc3c(C)cc(C)cc3C)c(C(=O)NC(C)(C)C)c3cc(O)c(Br)cc32)cc1`, the remaining at 1 h, 100 µM came out at 0.73%.
`CCOC(=O)c1c(CSc2ccc(C)cc2C)n(Cc2ccc(C)cc2)c2cc(Br)c(O)c(CN(C)C)c12`: the remaining at 1 h, 100 µM is 0.314%.

Tested on in another series: not listed separately
The series can be described thus: Stability in human plasma assessed as compound remaining at 2 uM measured after 60 mins by LC-MS/MS analysis. The format is ADME, cell-free. Conditions: read-out: Stability.
With `Cc1ccc(Cn2c(CSc3c(C)cc(C)cc3C)c(C(=O)NC(C)(C)C)c3cc(O)c(Br)cc32)cc1`, the remaining at 1 h, 2 µM was 116%.

Tested on in the next series: not listed separately
The series can be described thus: Microsomal stability in mouse liver microsomes assessed as intrinsic clearance measured per mg protein at 100 uM preincubated for 15 mins followed by NADPH addition measured up to 60 mins by LC-MS/MS analysis. The format is ADME, Microsome. Conditions: time < 75 min, read-out: CLH.
On to `CCOC(=O)c1c(CSc2ccc(C)cc2C)n(Cc2cccc3ccccc23)c2cc(Br)c(O)cc12`, for which the microsomal CLint at 100 µM was more than 14.4 µL/min/mg.
Same read-out and setting: the result for `Cc1ccc(Cn2c(CSc3c(C)cc(C)cc3C)c(C(=O)NC(C)(C)C)c3cc(O)c(Br)cc32)cc1` reads 143 µL/min/mg; that for `CCOC(=O)c1c(CSc2ccc(C)cc2C)n(Cc2ccc(C)cc2)c2cc(Br)c(O)c(CN(C)C)c12`, 273 µL/min/mg.

The next series relates to SARS-CoV-2. The series can be described thus: Antiviral activity against SARS CoV-2 Wuhan infected in African green monkey Vero E6 cells assessed as inhibition of viral replication pretreated for 15 mins followed by compound removal and induction of viral infection for 1 hr and subsequent removal of inoculum and further addition of media containing compound measured after 24 hrs by cell-based ELISA. The format is functional, organism-based. Conditions: Severe acute respiratory syndrome coronavirus 2, Wuhan, Vero C1008.
Take `CCOC(=O)c1c(CSc2ccc(C)cc2C)n(Cc2cccc3ccccc23)c2cc(Br)c(O)cc12`: the pIC50 is 6.62.
In the case of `Cc1ccc(Cn2c(CSc3c(C)cc(C)cc3C)c(C(=O)NC(C)(C)C)c3cc(O)c(Br)cc32)cc1`, the pIC50 is 6.25.
For `CCOC(=O)c1c(CSc2ccc(C)cc2C)n(Cc2ccc(C)cc2)c2cc(Br)c(O)c(CN(C)C)c12`, the pIC50 was 5.82.

Another series relates to Vero C1008. The series can be described thus: Cytotoxicity against African green monkey Vero E6 cells assessed as cell viability at 5 uM incubated for 48 hrs by MTT assay. The format is toxicity, cell-based. Conditions: chlorocebus sabaeus, vero c1008, 48 h, 5 µM.
On to `CCOC(=O)c1c(CSc2ccc(C)cc2C)n(Cc2cccc3ccccc23)c2cc(Br)c(O)cc12`, for which the Activity result is “Non-toxic”.
On to `Cc1ccc(Cn2c(CSc3c(C)cc(C)cc3C)c(C(=O)NC(C)(C)C)c3cc(O)c(Br)cc32)cc1`, for which the Activity result is given as “Non-toxic”.
Still for that read-out and setting: the result for `CCOC(=O)c1c(CSc2ccc(C)cc2C)n(Cc2ccc(C)cc2)c2cc(Br)c(O)c(CN(C)C)c12` reads “Non-toxic”.

Tested on in a further series: not listed separately
The series can be described thus: Lipophilicity, LogD of compound in sodium phosphate buffer/n-octanol incubated for 3 hrs by LC-UV analysis. The format is physicochemical.
Conditions: not given
In turn, `CCOC(=O)c1c(CSc2ccc(C)cc2C)n(Cc2cccc3ccccc23)c2cc(Br)c(O)cc12` registered a logD at 3 h of 3.76.
As for `Cc1ccc(Cn2c(CSc3c(C)cc(C)cc3C)c(C(=O)NC(C)(C)C)c3cc(O)c(Br)cc32)cc1`, the logD at 3 h came to 3.54.
The same measure, in the same setting: the result for `CCOC(=O)c1c(CSc2ccc(C)cc2C)n(Cc2ccc(C)cc2)c2cc(Br)c(O)c(CN(C)C)c12` reads 3.98.

For the next series, the system named is SARS-CoV-2. The series can be described thus: Antiviral activity against SARS CoV-2 Wuhan infected in African green monkey Vero E6 cells assessed as virus inactivation at 1 uM pretreated for 15 mins followed by compound removal and induction of viral infection for 1 hr and subsequent removal of inoculum and further addition of media containing compound measured after 48 hrs by RT-qPCR analysis relative to control. The format is functional, Severe acute respiratory syndrome coronavirus 2. Conditions: time 48.25 hrs.
As for `CCOC(=O)c1c(CSc2ccc(C)cc2C)n(Cc2ccc(C)cc2)c2cc(Br)c(O)c(CN(C)C)c12`, the Activity is reported as less than 99.9%.

The half-life is the time needed for the level to fall by half in the phase considered. The term pIC50 denotes the negative decadic logarithm of the IC50, by convention in mol/L. One may read the logD as the decadic logarithm of the distribution of all forms, ionised or not, between an organic phase and buffer at a given pH.
